Format in all cases: cell-based
Assay [1] concerns IL-6 production in LPS-treated RAW 264.7 cells. The assay is described as follows: pro-inflammatory cytokine production, ELISA. Conditions: reference inhibitor, concentration not given, 24 h. The protocol: (§1) RAW 264.7 cells were dispensed into a 24-well plate at a density of […], incubated for 24 hours, and then treated with a non-cytotoxic concentration of the sample and LPS ([…]), followed by an additional 24-hour incubation. The cell culture was centrifuged at 5,000 rpm for 5 minutes, and the supernatant was collected. The levels of […] (FIG. 88), IL-6 (FIG. 89), and TNF-α (FIG. 90) were then measured using an ELISA kit according to the manufacturer's instructions.
A general note: An ELISA detects its analyte on a solid surface through an enzyme-linked reagent.

The subject of assay [2] is IL-1β production in LPS-treated RAW 264.7 cells. The assay is described as follows: pro-inflammatory cytokine production, ELISA. Conditions: reference inhibitor, concentration not given, 24 h. The protocol:
as §1

Assay [3] has as its system TNF-α production in LPS-treated RAW 264.7 cells. The assay is described as follows: pro-inflammatory cytokine production, ELISA. To be noted: reference inhibitor, concentration not given, 24 h. The protocol: as §1
Assay [4] concerns the target cannabinoid receptor 2 (CB2) (Homo sapiens, UniProt P34972). The assay is described as follows: agonist effect on cannabinoid receptor, cAMP measurement. Conditions: CB2, concentration-response graph.
Experimental: The efficacy was evaluated by measuring the amount of cyclic adenosine monophosphate (cAMP) generated from adenosine triphosphate (ATP) through the activation of adenylyl cyclase, which is triggered by G-protein alpha (G-protein a) as part of the stepwise signal transduction pathway initiated upon the binding of the test sample to the receptor. The efficacy was evaluated by measuring the amount of cyclic adenosine monophosphate (cAMP) generated from adenosine triphosphate (ATP) through G-protein alpha (G-protein a), which is activated by the binding of the sample to the receptor as part of the stepwise signal transduction pathway, and adenylyl cyclase, which is activated by G-protein a.

Sequence of cannabinoid receptor 2 (CB2) (P34972 whole entry): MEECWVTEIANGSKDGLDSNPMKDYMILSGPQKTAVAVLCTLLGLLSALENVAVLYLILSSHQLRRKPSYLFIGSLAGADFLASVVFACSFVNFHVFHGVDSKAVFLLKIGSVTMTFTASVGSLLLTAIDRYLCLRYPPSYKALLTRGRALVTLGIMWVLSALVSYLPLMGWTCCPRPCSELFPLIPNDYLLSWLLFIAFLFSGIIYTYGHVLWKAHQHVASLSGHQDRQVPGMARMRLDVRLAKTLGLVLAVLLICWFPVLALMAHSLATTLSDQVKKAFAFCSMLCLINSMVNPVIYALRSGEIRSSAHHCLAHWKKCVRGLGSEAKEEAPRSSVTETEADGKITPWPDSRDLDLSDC

Regarding `N.S=C(S)N1CCCC1` [APDTC], the “decrease of IL-6 production” value in assay [1] was determined as 47.12%. The “decrease of IL-1β production” value in assay [2] came to 45.39%. The “decrease of TNF-α production” value in assay [3] is listed as 20.28%.

On to `CCCCCCC(C)(C)c1ccc([C@@H]2C[C@H](O)CC[C@H]2CCCO)c(O)c1` [CP55940], for which the “Graph Min” value in assay [4] came out at 5.4524.

Values taken from patent publication US20260199267A1, “METHOD FOR PREPARING ENDO-C[…] FROM VEGETABLE OILS USING LIPASE AND USE THEREOF” (KOREA RESEARCH INSTITUTE OF BIOSCIENCE AND BIOTECHNOLOGY, priority 2022, published 2026).
